Reference: US4150137A, “Pyridylalkyl esters of 2-(p-isobutylphenyl)acetic acid and propionic acids and use” (Hisamitsu Pharmaceutical Co. Inc., priority 1975, dated 1979)

Tests used:
[1] = test system: carrageenin-induced leakage of the pigment, dorsal skin; experiment: Anti-inflammatory activity for topical route (carrageenin, leakage of pigment in dorsal skin); type: in vivo, rat (Wistar-strain); details: for anti-inflammatory effect, topical (relative inhibition, ibuprofen = 1.0): 1% in polyethylene glycol 300, percent inhibition divided by that of ibuprofen
Experimental: The dorsal skin of male rats of Wistar-strain(body weight: about 100 g) were depilated. Carrageenin suspension was injected intra-dermally at a dose of 250 γ/0.05 ml/site. […] Immediately after injection, the filter paper containing 125.2±18.0 mg of the polyethylene glycol was applied on the injected site. After 3 hours, 1% pontamine sky blue solution was injected intravenously at a dose of 0.5 ml/kg. After further 3 hours, the animals were sacrificed and their dorsal skin were removed to measure the area of leakage of the pigment. The percent inhibition was determined with respect to the results for the control animals.

[2] = test system: male mice of dd-strain; type: in vivo; details: death of animals 72 hours following administration
Experimental: Each test compound suspended in 0.5% tragacanth-saline was administered intraperitoneally or orally to male mice of dd-strain(body weight 16-24 g). The lethal dose was estimated from the death of animals 72 hours following administration.

[3] = test system: carrageenin edema; experiment: Anti-inflammatory activity for oral route (carrageenin edema, hind paw); type: in vivo, rat (Wistar-strain); details: for anti-inflammatory effect, oral, 10 mg/kg (relative inhibition, ibuprofen = 1.0): 10 mg/kg oral; for anti-inflammatory effect, oral, 10 mg/kg (relative inhibition, ibuprofen = 1.0) / anti-inflammatory effect, oral, 50 mg/kg (relative inhibition, ibuprofen = 1.0): percent inhibition divided by that of ibuprofen, carrageenin edema after 3 hours; for anti-inflammatory effect, oral, 50 mg/kg (relative inhibition, ibuprofen = 1.0): 50 mg/kg oral; for mean percent inhibition (carrageenin edema): oral
Experimental: After 30 minutes 0.5-1.0% carrageenin suspended in the water for injection was injected subcutaneously to a hind paw. After 3 hours the carrageenin edema was measured by volume, and the percent inhibition was determined with respect to the results for the control animals.

[4] = test system: writhing syndrome; experiment: Analgetic activity (acetic acid writhing syndrome); type: in vivo, mouse (dd-strain); details: Mus musculus, 1 h; oral, mice, 0.6% acetic acid i.p. one hour later; Litchfield-Wilcoxon; read-out: analgetic effect ED50 (95% C.L.)
Experimental: Each test compound suspended in 0.5% tragacanth-saline was orally administered to dd-strain mice(body weight: 18-20 g). After one hour 0.6% acetic acid solution was injected intraperitoneally in a volume of 0.1 ml/10 g.

SMILES | anti-inflammatory effect, topical (relative inhibition, ibuprofen = 1.0) [1] | acute toxicity, oral (lethal dose) [2] [mg/kg] | anti-inflammatory effect, oral, 10 mg/kg (relative inhibition, ibuprofen = 1.0) [3] | anti-inflammatory effect, oral, 50 mg/kg (relative inhibition, ibuprofen = 1.0) [3] | ED50 [4] [mg/kg] | mean percent inhibition (topical route) ([1]; 1% in polyethylene glycol 300) [%] | mean percent inhibition (carrageenin edema) ([3]; 10 mg/kg) [%] | mean percent inhibition (carrageenin edema) ([3]; 50 mg/kg) [%]
CCOCCOC(=O)C(C)c1ccc(CC(C)C)cc1 (stereo not shown) [Compound 15] | 1.2 | > 2000 | 0.7 | 0.9 | 156 | – | – | –
CC(=O)OCOC(=O)C(C)c1ccc(CC(C)C)cc1 (stereo not shown) [Compound 17] | – | – | 0.9 | 0.9 | – | – | – | –
CCCOC(=O)C(C)c1ccc(CC(C)C)cc1 (stereo not shown) [Compound 2, 2-(4-isobutylphenyl)propionic acid-n-propyl ester] | 3.2 | > 2000 | 0.7 | 1.1 | 192 | – | – | –
CC(C)Cc1ccc(C(C)C(=O)OCC2CCCO2)cc1 (stereo not shown) | 3.1 | 1000 to 2000 | 0.6 | 0.9 | 91.6 | – | – | –
COCOC(=O)C(C)c1ccc(CC(C)C)cc1 (stereo not shown) [Compound 12] | 2.5 | 500 to 1000 | 1.0 | 1.2 | 174 | – | – | –
CC(C)Cc1ccc(C(C)C(=O)OCc2ccc(Cl)cc2)cc1 (stereo not shown) | 2.8 | > 2000 | 0.5 | 1.0 | 486 | – | – | –
CC(C)Cc1ccc(C(C)C(=O)OCCN2CCN(C)CC2)cc1 (stereo not shown) | 2.5 | 1000 to 2000 | 1.0 | 1.1 | 31.6 | – | – | –
CC(C)Cc1ccc(C(C)C(=O)OCCCN(C)C)cc1 (stereo not shown) | 2.2 | 500 to 1000 | 0.7 | 1.1 | 29.9 | – | – | –
CCOC(=O)COC(=O)C(C)c1ccc(CC(C)C)cc1 (stereo not shown) [Compound 19] | 1.9 | > 2000 | 0.5 | 0.7 | 180 | – | – | –
CC(C)Cc1ccc(C(C)C(=O)OCCN2CCOCC2)cc1 (stereo not shown) | 1.6 | 1000 to 2000 | 0.7 | 0.9 | 154 | – | – | –
COc1ccc(COC(=O)C(C)c2ccc(CC(C)C)cc2)cc1 (stereo not shown) | 2.3 | – | 0.8 | 1.4 | 220 | – | – | –
CC(C)Cc1ccc(C(C)C(=O)OCc2ccccc2)cc1 (stereo not shown) | 3.1 | > 2000 | 0.7 | 0.9 | 118 | – | – | –
CC(C)Cc1ccc(C(C)C(=O)OCc2cccc(F)c2)cc1 (stereo not shown) | 0.9 | – | 0.8 | 1.7 | 634 | – | – | –
CC(C)Cc1ccc(C(C)C(=O)OCCN(C)C)cc1 (stereo not shown) | 2.0 | 1000 to 2000 | 0.8 | 1.2 | 53.7 | – | – | –
CC(C)Cc1ccc(C(C)C(=O)OCc2cccnc2)cc1 (stereo not shown) | 1.7 | 1000 to 2000 | 1.0 | 1.4 | 31.2 | – | – | –
CC(C)Cc1ccc(C(C)C(=O)OCc2c(Cl)cccc2Cl)cc1 (stereo not shown) | 2.1 | > 2000 | 0.6 | 1.0 | 79.6 | – | – | –
CC(C)Cc1ccc(C(C)C(=O)OCc2ccc(F)cc2)cc1 (stereo not shown) | – | – | 1.1 | 1.2 | – | – | – | –
CC(C)Cc1ccc(C(C)C(=O)OCCOCCO)cc1 (stereo not shown) [Compound 16] | 2.3 | > 2000 | – | 0.9 | 151 | – | – | –
COCCOC(=O)C(C)c1ccc(CC(C)C)cc1 (stereo not shown) [Compound 14] | 1.2 | 1000 to 2000 | 0.4 | 1.2 | 406 | – | – | –
COC(=O)C(C)c1ccc(CC(C)C)cc1 (stereo not shown) [Compound 1] | 3.5 | > 2000 | 0.8 | 1.4 | 109 | – | – | –
CC(C)Cc1ccc(C(C)C(=O)OCc2cccnc2Cl)cc1 (stereo not shown) | 1.8 | > 2000 | 0.8 | 2.5 | 762 | – | – | –
Cc1ccc(COC(=O)C(C)c2ccc(CC(C)C)cc2)cc1 (stereo not shown) | 1.9 | – | 1.7 | 1.5 | 230 | – | – | –
CC(C)Cc1ccc(C(C)C(=O)O)cc1 (stereo not shown) [ibuprofen, 2-(p-isobutylphenyl)propionic acid, reference compound] | – | – | – | – | 45.8 | 23.8 | 33.5 | 37.4
CC(C)Cc1ccc(C(C)C(=O)OCc2ccccc2F)cc1 (stereo not shown) | 2.9 | – | 1.6 | 1.7 | 202 | – | – | –
CC(C)Cc1ccc(C(C)C(=O)OCC(O)CO)cc1 (stereo not shown) [Compound 11] | – | 1000 to 2000 | 1.1 | 0.9 | 143 | – | – | –
